Data published in patent US10952992B2, “Methods of treating intraocular pressure with activators of Tie-2” (Aerpio Pharmaceuticals, Inc., priority 2015, dated 2021).
Values joined by “and” are separate entries in the source; they are usually repeats but may differ in a detail not shown here. Equal entries are not always repeated.

Tests used:
[1] = Example 2 iris, retina, choroid and cornea tissue concentrations; format: in vivo, male New Zealand White rabbits; conditions: for Cornea Conc. OS / Cornea Conc. OD: cornea homogenate; for Iris Conc. OS / Iris Conc. OD: iris homogenate; for Retina Conc. OS / Retina Conc. OD: retina homogenate
Method: (§1) To measure the concentration of Compound 1 in plasma and ocular tissues following topical ocular, subcutaneous, and intravitreal administration, New Zealand White rabbits were administered Compound 1, and plasma and ocular samples were collected at pre-determined time points. Compound 1 formulations were prepared fresh on each day of dosing.
(§2) Ocular tissue samples from both eyes of each animal were collected and weights were recorded. Plasma and ocular tissue sample concentrations of Compound 1 were determined by LC-MS/MS.
(§3) Animals were anesthetized for ocular (topical) and intravitreal dosing following the 12IA7 IACUC protocol. Each rabbit received a bolus dose of test formulation either via topical ocular administration 3 times daily on Days 1 and 2 (at 0, 6, and 12 hours), and once on Day 3 (at 0 hours) into both eyes; via intravitreal administration into both eyes once on Day 1 (at 0 hours); or via subcutaneous administration 2 times daily on Days 1 and 2 (at 0 and 8 hours) and once daily on Day 3 (at 0 hours). Doses were given within an approximately 1 hour window each day where applicable.
(§4) On Day 1, for intravitreal administration, or on Day 3, for topical ocular and subcutaneous administration, at the appropriate ocular tissue collection time points, animals were euthanized and both eyes were enucleated immediately. Following enucleation, each eye was rinsed with phosphate-buffered saline. Ocular tissue samples from both eyes of each animal were collected at predetermined time points and weights were recorded. All the samples were frozen immediately on dry ice, and stored at −60° C. to −80° C. pending bioanalysis.
(§5) An LC-MS/MS method was developed for the determination of Compound 1 in rabbit aqueous tissues (plasma, aqueous and vitreous humor) and solid ocular tissue samples. A pre-study standard curve was analyzed to determine the specificity, range, and lower limit of quantitation of the method. Plasma and tissue homogenate study samples were extracted and analyzed. All the samples were treated identically to the standards.
(§6) One eight-point standard curve was used in each analytical batch. To be accepted, each batch must have had at least five of eight standards with accuracy within ±20% of nominal, except at the lower limit of quantification (LLOQ), where ±25% was acceptable.

[2] = Example 2 aqueous humor concentrations; format: in vivo, male New Zealand White rabbits; conditions: for Average Peak Concentration, Aqueous Humor: suspension
Method: as §1, §2, §3, §4, §5, §6

[3] = 6.0 hr, left eye, individual animals, intravitreal 2.5 mg/eye (~1.54 mg/kg), group 5
[4] = 6.0 hr, right eye, individual animals, intravitreal 2.5 mg/eye (~1.54 mg/kg), group 5
[5] = 24 hr, left eye, individual animals, intravitreal 2.5 mg/eye (~1.54 mg/kg), group 5
[6] = 24 hr, right eye, individual animals, intravitreal 2.5 mg/eye (~1.54 mg/kg), group 5
[7] = 48 hr, left eye, individual animals, intravitreal 2.5 mg/eye (~1.54 mg/kg), group 5
[8] = 48 hr, right eye, individual animals, intravitreal 2.5 mg/eye (~1.54 mg/kg), group 5
[9] = 72 hr, left eye, individual animals, intravitreal 2.5 mg/eye (~1.54 mg/kg), group 5
[10] = 72 hr, right eye, individual animals, intravitreal 2.5 mg/eye (~1.54 mg/kg), group 5
[11] = 6.0 hr, average, intravitreal 2.5 mg/eye (~1.54 mg/kg), group 5
[12] = 24 hr, average, intravitreal 2.5 mg/eye (~1.54 mg/kg), group 5
[13] = 48 hr, average, intravitreal 2.5 mg/eye (~1.54 mg/kg), group 5
[14] = 72 hr, average, intravitreal 2.5 mg/eye (~1.54 mg/kg), group 5
[15] = Group 3 (subcutaneous 5 mg/kg/dose, suspension), 2.0 hr
[16] = Group 3 (subcutaneous 5 mg/kg/dose, suspension), 4.0 hr
[17] = Group 5 (intravitreal 2.5 mg/eye, suspension), 6.0 hr
[18] = Group 5 (intravitreal 2.5 mg/eye, suspension), 24 hr
[19] = Group 5 (intravitreal 2.5 mg/eye, suspension), 72 hr

## COC(=O)N[C@@H](Cc1ccccc1)C(=O)N[C@@H](Cc1ccc(NS(=O)(=O)O)cc1)c1csc(-c2cccs2)n1 [Compound 1 free acid]
[1]; choroid, 72 hr, average, intravitreal 2.5 mg/eye (~1.54 mg/kg), group 5
  Choroid tissue Conc. Avg.: 27555 ng/g
[1]; choroid, 72 hr, left eye, individual animals, intravitreal 2.5 mg/eye (~1.54 mg/kg), group 5
  Choroid tissue Conc. OS: 29260 ng/g and 32010 ng/g
[1]; choroid, 72 hr, right eye, individual animals, intravitreal 2.5 mg/eye (~1.54 mg/kg), group 5
  Choroid tissue Conc. OD: 23980 ng/g and 24970 ng/g
[1]; [3]
  Cornea Conc. OS: 3140 ng/mL and 1180 ng/mL
  Cornea tissue Conc. OS: 34540 ng/g and 12980 ng/g
  Iris Conc. OS: 13800 ng/mL and 12200 ng/mL
  Iris tissue Conc. OS: 151800 ng/g and 134200 ng/g
  Retina Conc. OS: 154000 ng/mL and 120000 ng/mL
  Retina tissue Conc. OS: 1694000 ng/g and 1320000 ng/g
[1]; [4]
  Cornea Conc. OD: 7910 ng/mL and 7610 ng/mL
  Cornea tissue Conc. OD: 87010 ng/g and 83710 ng/g
  Iris Conc. OD: 18500 ng/mL and 32100 ng/mL
  Iris tissue Conc. OD: 203500 ng/g and 353100 ng/g
  Retina Conc. OD: 146000 ng/mL and 303000 ng/mL
  Retina tissue Conc. OD: 1606000 ng/g
[1]; [5]
  Cornea Conc. OS: 1190 ng/mL and 1050 ng/mL
  Cornea tissue Conc. OS: 13090 ng/g and 11550 ng/g
  Iris Conc. OS: 14100 ng/mL and 8200 ng/mL
  Iris tissue Conc. OS: 155100 ng/g and 90200 ng/g
  Retina Conc. OS: 98900 ng/mL and 198000 ng/mL
  Retina tissue Conc. OS: 1087900 ng/g and 2178000 ng/g
[1]; [6]
  Cornea Conc. OD: 1520 ng/mL and 2520 ng/mL
  Cornea tissue Conc. OD: 16720 ng/g and 27720 ng/g
  Iris Conc. OD: 7670 ng/mL and 11000 ng/mL
  Iris tissue Conc. OD: 84370 ng/g and 121000 ng/g
  Retina Conc. OD: 130000 ng/mL and 145000 ng/mL
  Retina tissue Conc. OD: 1430000 ng/g and 1595000 ng/g
[1]; [7]
  Cornea Conc. OS: 293 ng/mL and 571 ng/mL
  Cornea tissue Conc. OS: 3223 ng/g and 6281 ng/g
  Iris Conc. OS: 1950 ng/mL and 2030 ng/mL
  Iris tissue Conc. OS: 21450 ng/g and 22330 ng/g
  Retina Conc. OS: 14000 ng/mL and 101000 ng/mL
  Retina tissue Conc. OS: 154000 ng/g and 1111000 ng/g
[1]; [8]
  Cornea Conc. OD: 437 ng/mL and 384 ng/mL
  Cornea tissue Conc. OD: 4807 ng/g and 4224 ng/g
  Iris Conc. OD: 1010 ng/mL and 1110 ng/mL
  Iris tissue Conc. OD: 11110 ng/g and 12210 ng/g
  Retina Conc. OD: 66700 ng/mL and 65500 ng/mL
  Retina tissue Conc. OD: 733700 ng/g and 720500 ng/g
[1]; [9]
  Cornea Conc. OS: 117 ng/mL and 45.3 ng/mL
  Cornea tissue Conc. OS: 1287 ng/g and 498 ng/g
  Iris Conc. OS: 1800 ng/mL and 1320 ng/mL
  Iris tissue Conc. OS: 19800 ng/g and 14520 ng/g
  Retina Conc. OS: 10800 ng/mL and 12900 ng/mL
  Retina tissue Conc. OS: 118800 ng/g and 141900 ng/g
[1]; [10]
  Cornea Conc. OD: 37.7 ng/mL and 77.2 ng/mL
  Cornea tissue Conc. OD: 415 ng/g and 849 ng/g
  Iris Conc. OD: 279 ng/mL and 351 ng/mL
  Iris tissue Conc. OD: 3069 ng/g and 3861 ng/g
  Retina Conc. OD: 9890 ng/mL and 6070 ng/mL
  Retina tissue Conc. OD: 108790 ng/g and 66770 ng/g
[1]; [11]
  Cornea tissue Conc. Avg.: 54560 ng/g
  Iris tissue Conc. Avg.: 210650 ng/g
  Retina tissue Conc. Avg.: 1988250 ng/g
[1]; [12]
  Cornea tissue Conc. Avg.: 17270 ng/g
  Iris tissue Conc. Avg.: 112668 ng/g
  Retina tissue Conc. Avg.: 1572725 ng/g
[1]; [13]
  Cornea tissue Conc. Avg.: 4634 ng/g
  Iris tissue Conc. Avg.: 16775 ng/g
  Retina tissue Conc. Avg.: 679800 ng/g
[1]; [14]
  Cornea tissue Conc. Avg.: 762 ng/g
  Iris tissue Conc. Avg.: 10313 ng/g
  Retina tissue Conc. Avg.: 109065 ng/g
[1]; intravitreal 1.54 mg/kg, free acid
  distribution among iris, retina, choroid, cornea (FIG. 16): generally higher in the retina and choroid
[1]; intravitreal administration
  ocular tissue concentrations at 72 hours, free acid suspension relative to sodium salt solution: higher concentrations
[1]; subcutaneous 5 mg/kg/dose, free acid
  distribution among iris, retina, choroid, cornea (FIG. 14): generally higher in the iris and choroid
[2]; Group 3 (subcutaneous 5 mg/kg/dose, suspension), 0.5 hr
  aqueous humor Average Conc.: 1.21 ng/g
[2]; Group 3 (subcutaneous 5 mg/kg/dose, suspension), 1.0 hr
  aqueous humor Average Conc.: 0.41 ng/g
[2]; [15]
  aqueous humor Average Conc.: 0.66 ng/g
  aqueous humor Conc. OD: 0.601 ng/mL
[2]; [16]
  aqueous humor Average Conc.: 0.51 ng/g
  aqueous humor Conc. OS: 0.229 ng/mL
[2]; Group 3: subcutaneous 5 mg/kg/dose
  Average Peak Concentration, Aqueous Humor: 1.21 ng/g
[2]; [17]
  aqueous humor Average Conc.: 26400 ng/g
  aqueous humor Conc. OD: 34200 ng/mL and 23400 ng/mL
[2]; [18]
  aqueous humor Average Conc.: 4270 ng/g
  aqueous humor Conc. OD: 3890 ng/mL and 5540 ng/mL
[2]; Group 5 (intravitreal 2.5 mg/eye, suspension), 48 hr
  aqueous humor Average Conc.: 915 ng/g
[2]; [19]
  aqueous humor Average Conc.: 120 ng/g
  aqueous humor Conc. OD: 145 ng/mL and 94.1 ng/mL
[2]; Group 5: intravitreal 1.54 mg/kg/dose
  Average Peak Concentration, Aqueous Humor: 26400 ng/g
